Bliss interaction score data for 20 compounds are collected here from the supplement of paper PMC10627819.

Each structure is given as a SMILES string.

Holding throughout (assay): Bliss interaction score (quartile over a dose matrix) (fitness difference); higher = more antagonism (negative = synergy)
In one test the test system is B. subtilis 168. The gist of the method:
(§1)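 Fitness was defined as normalised growth: OD595 at the start of stationary phase divided by the plate's robust no-drug mean and capped at 1. Single-drug fitness was inferred from combination measurements. The Bliss score is observed fitness minus the product of the single-drug values, summarised by quartiles across technical, biological and donor/recipient replicates.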

A further test has as its system S. pneumoniae D39V. In a few lines:
as §1

Another test deals with S. aureus DSM 20231. The gist of the method:
as §1

The test system of a further test is S. aureus Newman. The gist of the method:
as §1
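Note: first quartile when negative (synergy) and third quartile when positive (antagonism).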

On to `O=C1CN(/N=C/c2ccc([N+](=O)[O-])o2)C(=O)N1` [Nitrofurantoin] + CC1(C)S[C@@H]2[C@H](NC(=O)Cc3ccccc3)C(=O)N2[C@H]1C(=O)O [PenicillinG], for which the Bliss interaction score in the test on B. subtilis 168 was -0.0696; in the test on S. pneumoniae D39V it was 0.13; in the test with S. aureus DSM 20231, -0.0568; in the test on S. aureus Newman it was 0.0397.

As to `CC(=O)O[C@H]1C[C@@]2(C)[C@@H](C[C@@H](O)[C@H]3[C@@]4(C)CC[C@@H](O)[C@@H](C)[C@@H]4CC[C@@]32C)/C1=C(\CCC=C(C)C)C(=O)O` [Fusidic acid] + CO[C@@]12[C@H](COC(N)=O)C3=C(C(=O)C(C)=C(N)C3=O)N1C[C@@H]1N[C@@H]12 [MitomycinC], the Bliss interaction score in the test with B. subtilis 168 was 0.0298; in the test with S. pneumoniae D39V, -0.149; in the test with S. aureus DSM 20231, 0.0263; in the test on S. aureus Newman it was 0.0159.

As to `CC(=O)OC[C@H]1O[C@@H]([S-])[C@H](OC(C)=O)[C@@H](OC(C)=O)[C@@H]1OC(C)=O.CCP(CC)CC.[Au+]` [Auranofin] + Oc1cc(Cl)ccc1Oc1ccc(Cl)cc1Cl [Triclosan], the Bliss interaction score in the test with B. subtilis 168 was -0.0277; in the test on S. pneumoniae D39V, 0.106; with S. aureus DSM 20231, -0.0223; in the test on S. aureus Newman, -0.0211.

`N[C@@H]1CONC1=O` [CycloserineD] + CO[C@@H]1[C@@H](OC(N)=O)[C@@H](O)[C@H](Oc2ccc3c(O)c(NC(=O)c4ccc(O)c(CC=C(C)C)c4)c(=O)oc3c2C)OC1(C)C [Novobiocin]: the Bliss interaction score was 0.0651 in the test on B. subtilis 168, 0.187 in the test on S. pneumoniae D39V, 0.0888 with S. aureus DSM 20231 and 0.0912 in the test with S. aureus Newman.

As for `O=C(N[C@H](CO)[C@H](O)c1ccc([N+](=O)[O-])cc1)C(Cl)Cl` [Chloramphenicol] + CN[C@H](CC(C)C)C(=O)N[C@H]1C(=O)N[C@@H](CC(N)=O)C(=O)N[C@H]2C(=O)N[C@H]3C(=O)N[C@H](C(=O)N[C@H](C(=O)O)c4cc(O)cc(O)c4-c4cc3ccc4O)[C@H](O[C@H]3C[C@](C)(N)[C@@H](O)[C@H](C)O3)c3ccc(c(Cl)c3)Oc3cc2cc(c3O[C@@H]2O[C@H](CO)[C@@H](O)[C@H](O)[C@H]2O[C@H]2C[C@](C)(NCc3ccc(-c4ccc(Cl)cc4)cc3)[C@@H](O)[C@H](C)O2)Oc2ccc(cc2Cl)[C@H]1O [Oritavancin], the Bliss interaction score with B. subtilis 168 was 0.0647; in the test on S. pneumoniae D39V it was 0.0499; with S. aureus DSM 20231, 0.0571; with S. aureus Newman, -0.0346.

Turning to `N[C@@H]1CONC1=O` [CycloserineD] + CC1(C)S[C@@H]2[C@H](NC(=O)Cc3ccccc3)C(=O)N2[C@H]1C(=O)O [PenicillinG], the Bliss interaction score is 0.116 with B. subtilis 168, -0.221 in the test with S. pneumoniae D39V, -0.0754 with S. aureus DSM 20231 and 0.0553 in the test with S. aureus Newman.

`CCCCCCCCCC(=O)N[C@H]1[C@H](Oc2c3cc4cc2Oc2ccc(cc2Cl)[C@@H](O[C@@H]2O[C@H](CO)[C@@H](O)[C@H](O)[C@H]2NC(C)=O)[C@@H]2NC(=O)[C@H](NC(=O)[C@@H]4NC(=O)[C@H]4NC(=O)[C@@H](Cc5ccc(c(Cl)c5)O3)NC(=O)[C@H](N)c3ccc(O)c(c3)Oc3cc(O)cc4c3)c3ccc(O)c(c3)-c3c(O[C@H]4O[C@H](CO)[C@@H](O)[C@H](O)[C@@H]4O)cc(O)cc3[C@@H](C(=O)O)NC2=O)O[C@H](CO)[C@@H](O)[C@@H]1O` [Teicoplanin] + Oc1cc(Cl)ccc1Oc1ccc(Cl)cc1Cl [Triclosan]: the Bliss interaction score in the test on B. subtilis 168 (main component drawn) is 0.0943; in the test with S. pneumoniae D39V (main component drawn), -0.106; in the test with S. aureus DSM 20231 (main component drawn), 0.0695; in the test on S. aureus Newman (main component drawn) it was -0.0356.

Take `CC(=O)OC[C@H]1O[C@@H]([S-])[C@H](OC(C)=O)[C@@H](OC(C)=O)[C@@H]1OC(C)=O.CCP(CC)CC.[Au+]` [Auranofin] + C[n+]1ccc(-c2cc[n+](C)cc2)cc1 [Paraquat]: the Bliss interaction score in the test on B. subtilis 168 is -0.0338; in the test on S. pneumoniae D39V it was 0.0914; with S. aureus DSM 20231, -0.0369; in the test with S. aureus Newman, -0.0941.

Consider `CC(=O)O[C@H]1C[C@@]2(C)[C@@H](C[C@@H](O)[C@H]3[C@@]4(C)CC[C@@H](O)[C@@H](C)[C@@H]4CC[C@@]32C)/C1=C(\CCC=C(C)C)C(=O)O` [Fusidic acid] + Cc1onc(-c2ccccc2)c1C(=O)N[C@@H]1C(=O)N2[C@@H]1SC(C)(C)[C@@H]2C(=O)O [Oxacillin], for which the Bliss interaction score in the test on B. subtilis 168 stood at 0.0607; in the test with S. pneumoniae D39V, 0.152; with S. aureus DSM 20231, 0.044; in the test on S. aureus Newman it was 0.0784.

Regarding `CCC[C@@H]1C[C@@H](C(=O)N[C@@H]([C@H]2O[C@H](SC)[C@H](O)[C@@H](O)[C@H]2O)[C@H](C)Cl)N(C)C1` [Clindamycin] + CO[C@@]12[C@H](COC(N)=O)C3=C(C(=O)C(C)=C(N)C3=O)N1C[C@@H]1N[C@@H]12 [MitomycinC], the Bliss interaction score in the test on B. subtilis 168 was 0.0747; in the test with S. pneumoniae D39V, 0.0747; in the test on S. aureus DSM 20231, -0.0349; in the test with S. aureus Newman, 0.0745.

For `CC(=O)O[C@H]1C[C@@]2(C)[C@@H](C[C@@H](O)[C@H]3[C@@]4(C)CC[C@@H](O)[C@@H](C)[C@@H]4CC[C@@]32C)/C1=C(\CCC=C(C)C)C(=O)O` [Fusidic acid] + COc1ccc(C[C@H](N)C(=O)N[C@H]2[C@@H](O)[C@H](n3cnc4c(N(C)C)ncnc43)O[C@@H]2CO)cc1 [Puromycin], the Bliss interaction score in the test with B. subtilis 168 was -0.045; in the test on S. pneumoniae D39V it was -0.213; in the test on S. aureus DSM 20231 it was 0.0336; in the test with S. aureus Newman, -0.0454.

In the case of `O=C1CN(/N=C/c2ccc([N+](=O)[O-])o2)C(=O)N1` [Nitrofurantoin] + CC[C@H]1OC(=O)[C@H](C)C(=O)[C@H](C)[C@@H](O[C@@H]2O[C@H](C)C[C@H](N(C)C)[C@H]2O)[C@](C)(OC)C[C@@H](C)C(=O)[C@H](C)[C@H]2N(CCCCn3cnc(-c4cccnc4)c3)C(=O)O[C@]12C [Telithromycin], the Bliss interaction score was -0.128 with B. subtilis 168, -0.293 with S. pneumoniae D39V, -0.0398 with S. aureus DSM 20231 and -0.0641 in the test on S. aureus Newman.

Turning to `CCC[C@@H]1C[C@@H](C(=O)N[C@@H]([C@H]2O[C@H](SC)[C@H](O)[C@@H](O)[C@H]2O)[C@@H](C)O)N(C)C1` [Lincomycin] + CC1(C)S[C@@H]2[C@H](NC(=O)Cc3ccccc3)C(=O)N2[C@H]1C(=O)O [PenicillinG], the Bliss interaction score was 0.0736 in the test with B. subtilis 168, 0.0998 in the test on S. pneumoniae D39V, 0.0494 with S. aureus DSM 20231 and 0.0805 with S. aureus Newman.

On to `CC(=O)OC[C@H]1O[C@@H]([S-])[C@H](OC(C)=O)[C@@H](OC(C)=O)[C@@H]1OC(C)=O.CCP(CC)CC.[Au+]` [Auranofin] + Cc1cc(NS(=O)(=O)c2ccc(N)cc2)no1 [Sulfamethoxazol], for which the Bliss interaction score in the test with B. subtilis 168 was -0.0445; in the test with S. pneumoniae D39V, 0.088; with S. aureus DSM 20231, -0.0419; in the test on S. aureus Newman it was -0.0374.

As to `N[C@@H]1CONC1=O` [CycloserineD] + CCC[C@@H]1C[C@@H](C(=O)N[C@@H]([C@H]2O[C@H](SC)[C@H](O)[C@@H](O)[C@H]2O)[C@@H](C)O)N(C)C1 [Lincomycin], the Bliss interaction score with B. subtilis 168 is -0.0375; with S. pneumoniae D39V, 0.153; with S. aureus DSM 20231 it was -0.146; in the test with S. aureus Newman, 0.102.

As for `CC(=O)O[C@H]1C[C@@]2(C)[C@@H](C[C@@H](O)[C@H]3[C@@]4(C)CC[C@@H](O)[C@@H](C)[C@@H]4CC[C@@]32C)/C1=C(\CCC=C(C)C)C(=O)O` [Fusidic acid] + COc1c(N2C[C@@H]3CCCN[C@@H]3C2)c(F)cc2c(=O)c(C(=O)O)cn(C3CC3)c12 [Moxifloxacin], the Bliss interaction score turned out to be 0.0398 with B. subtilis 168, 0.048 in the test with S. pneumoniae D39V, 0.0361 with S. aureus DSM 20231 and 0.0453 in the test with S. aureus Newman.

With `CC(=O)OC[C@H]1O[C@@H]([S-])[C@H](OC(C)=O)[C@@H](OC(C)=O)[C@@H]1OC(C)=O.CCP(CC)CC.[Au+]` [Auranofin] + C1=CC(=CC(=C1)Cl)NN=C(C#N)C#N [CCCP], the Bliss interaction score in the test on B. subtilis 168 worked out at 0.0372; in the test with S. pneumoniae D39V it was 0.0425; with S. aureus DSM 20231, 0.0194; in the test with S. aureus Newman, 0.0798.

For `N[C@@H]1CONC1=O` [CycloserineD] + COc1c(N2C[C@@H]3CCCN[C@@H]3C2)c(F)cc2c(=O)c(C(=O)O)cn(C3CC3)c12 [Moxifloxacin], the Bliss interaction score with B. subtilis 168 is -0.0252; in the test with S. pneumoniae D39V it was 0.0969; with S. aureus DSM 20231, -0.0873; in the test with S. aureus Newman it was -0.0769.

Regarding `CC(=O)O[C@H]1C[C@@]2(C)[C@@H](C[C@@H](O)[C@H]3[C@@]4(C)CC[C@@H](O)[C@@H](C)[C@@H]4CC[C@@]32C)/C1=C(\CCC=C(C)C)C(=O)O` [Fusidic acid] + CCC(C)C1C(=O)NC(=C)C(=O)NC(C(=O)NC(CSCC(C(=O)N1)NC(=O)/C(=C/C)/NC(=O)C(C(C)CC)N)C(=O)NC2C(SCC(NC(=O)CNC(=O)C3CCCN3C2=O)C(=O)NC(CCCCN)C(=O)NC4C(SCC(NC(=O)CNC(=O)C(NC(=O)C(NC(=O)C(NC(=O)CNC4=O)C)CC(C)C)CCSC)C(=O)NC(CC(=O)N)C(=O)NC(CCSC)C(=O)NC(CCCCN)C(=O)NC5C(SCC6C(=O)NC(C(=O)NC(CSC(C(C(=O)N6)NC(=O)C(NC5=O)C)C)C(=O)NC(CO)C(=O)NC(C(C)CC)C(=O)NC(CC7=CN=CN7)C(=O)NC(C(C)C)C(=O)NC(=C)C(=O)NC(CCCCN)C(=O)O)CC8=CN=CN8)C)C)C)CC(C)C [Nisin], the Bliss interaction score in the test on B. subtilis 168 (main component drawn) was -0.0332; in the test on S. pneumoniae D39V (main component drawn), -0.0281; in the test on S. aureus DSM 20231 (main component drawn), 0.0299; in the test on S. aureus Newman (main component drawn) it was -0.0346.

As to `CC[C@H]1OC(=O)[C@H](C)[C@@H](O[C@H]2C[C@@](C)(OC)[C@@H](O)[C@H](C)O2)[C@H](C)[C@@H](O[C@@H]2O[C@H](C)C[C@H](N(C)C)[C@H]2O)[C@](C)(OC)C[C@@H](C)C(=O)[C@H](C)[C@@H](O)[C@]1(C)O` [Clarithromycin] + O=C(O)[C@H]1/C(=C/CO)O[C@@H]2CC(=O)N21 [Clavulanic], the Bliss interaction score in the test with B. subtilis 168 is 0.047; in the test with S. pneumoniae D39V it was -0.059; in the test with S. aureus DSM 20231 it was -0.212; in the test on S. aureus Newman, 0.277.
